Source: PubChem BioAssay (NCI)
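All cell lines were grown in 96-well plates and treated with compound for 48 hours. The concentration for 50% growth inhibition is given as GI50. TGI: concentration producing complete growth inhibition.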

What was measured:
Assay in all cases: NCI-60 cell line screen, 48 h
[1] = test system: DU-145 prostate
[2] = test system: SK-MEL-28 melanoma
[3] = test system: A498 renal
[4] = test system: U251 CNS
[5] = test system: UACC-62 melanoma
[6] = test system: HL-60(TB) leukemia
[7] = test system: OVCAR-8 ovarian
[8] = test system: BT-549 breast
[9] = test system: EKVX NSCLC
[10] = test system: SN12C renal
[11] = test system: MALME-3M melanoma
[12] = test system: SK-MEL-5 melanoma
[13] = test system: CAKI-1 renal
[14] = test system: RXF 393 renal
[15] = test system: HOP-92 NSCLC
[16] = test system: SF-295 CNS
[17] = test system: ACHN renal
[18] = test system: HCT-15 colon
[19] = test system: SR leukemia
[20] = test system: HCT-116 colon
[21] = test system: TK-10 renal
[22] = test system: KM12 colon
[23] = test system: NCI-H522 lung
[24] = test system: NCI-H460 lung
[25] = test system: MCF7 breast
[26] = test system: COLO 205 colon
[27] = test system: M14 melanoma
[28] = test system: OVCAR-5 ovarian
[29] = test system: 786-0 renal
[30] = test system: SW-620 colon
[31] = test system: OVCAR-3 ovarian
[32] = test system: OVCAR-4 ovarian
[33] = test system: SF-268 CNS
[34] = test system: SF-539 CNS
[35] = test system: SNB-75 CNS
[36] = test system: MDA-MB-231 breast
[37] = test system: UACC-257 melanoma
[38] = test system: HT29 colon
[39] = test system: PC-3 prostate
[40] = test system: HOP-62 NSCLC
[41] = test system: HS 578T breast
[42] = test system: T-47D breast
[43] = test system: LOX IMVI melanoma
[44] = test system: NCI/ADR-RES ovarian
[45] = test system: SNB-19 CNS
[46] = test system: IGROV1 ovarian
[47] = test system: CCRF-CEM leukemia
[48] = test system: SK-MEL-2 melanoma
[49] = test system: NCI-H226 lung
[50] = test system: RPMI-8226 leukemia
[51] = test system: UO-31 renal
[52] = test system: SK-OV-3 ovarian
[53] = test system: K-562 leukemia
[54] = test system: MDA-MB-435
[55] = test system: A549 NSCLC
[56] = test system: HCC-2998 colon
[57] = test system: NCI-H23 lung

Structure (SMILES): CN1CC[C@@H](c2c(O)cc(O)c3c(=O)cc(-c4ccc(C(F)(F)F)cc4Cl)oc23)[C@@H]1CO
- GI50 [1]: 16.5 µM
- TGI [1]: 37.7 µM
- GI50 [2]: 14.4 µM
- TGI [2]: 32.2 µM
- GI50 [3]: 14.2 µM
- TGI [3]: 27.6 µM
- GI50 [4]: 16.7 µM
- TGI [4]: 33.9 µM
- GI50 [5]: 14.6 µM
- TGI [5]: 32.8 µM
- GI50 [6]: 8.37 µM
- TGI [6]: 33.6 µM
- GI50 [7]: 18.2 µM
- TGI [7]: 42 µM
- GI50 [8]: 12.2 µM
- TGI [8]: 25.9 µM
- GI50 [9]: 13.9 µM
- TGI [9]: 37.5 µM
- GI50 [10]: 16.4 µM
- TGI [10]: 44.6 µM
- GI50 [11]: 18.4 µM
- TGI [11]: 36.9 µM
- GI50 [12]: 15.4 µM
- TGI [12]: 30.7 µM
- GI50 [13]: 14.7 µM
- TGI [13]: 39.8 µM
- GI50 [14]: 10.9 µM
- TGI [14]: 24.8 µM
- GI50 [15]: 13 µM
- TGI [15]: 40.3 µM
- GI50 [16]: 16.7 µM
- TGI [16]: 36.4 µM
- GI50 [17]: 10.6 µM
- TGI [17]: 38 µM
- GI50 [18]: 20.9 µM
- TGI [18]: 78.2 µM
- GI50 [19]: 3.21 µM
- TGI [19]: 17 µM
- GI50 [20]: 11.4 µM
- TGI [20]: 24.2 µM
- GI50 [21]: 14.7 µM
- TGI [21]: 43.5 µM
- GI50 [22]: 13.7 µM
- TGI [22]: 30.4 µM
- GI50 [23]: 17.4 µM
- TGI [23]: 37.3 µM
- GI50 [24]: 15.8 µM
- TGI [24]: 31.4 µM
- GI50 [25]: 14.5 µM
- TGI [25]: 38.3 µM
- GI50 [26]: 15.1 µM
- TGI [26]: 32.9 µM
- GI50 [27]: 17.8 µM
- TGI [27]: 33.8 µM
- GI50 [28]: 14.1 µM
- TGI [28]: 59.3 µM
- GI50 [29]: 13.3 µM
- TGI [29]: 31.9 µM
- GI50 [30]: 14.7 µM
- TGI [30]: 31.5 µM
- GI50 [31]: 17 µM
- TGI [31]: 46.9 µM
- GI50 [32]: 23.6 µM
- TGI [32]: 83.2 µM
- GI50 [33]: 15.2 µM
- TGI [33]: 39.6 µM
- GI50 [34]: 13.7 µM
- TGI [34]: 28.8 µM
- GI50 [35]: 6.89 µM
- TGI [35]: 22 µM
- GI50 [36]: 12.7 µM
- TGI [36]: 34.3 µM
- GI50 [37]: 26.6 µM
- TGI [37]: 46.7 µM
- GI50 [38]: 17.6 µM
- TGI [38]: 33.9 µM
- GI50 [39]: 19 µM
- TGI [39]: 44.5 µM
- GI50 [40]: 17.2 µM
- TGI [40]: 43.5 µM
- GI50 [41]: 11.8 µM
- TGI [41]: 33.6 µM
- GI50 [42]: 14.5 µM
- TGI [42]: 50.4 µM
- GI50 [43]: 11.9 µM
- TGI [43]: 25.6 µM
- GI50 [44]: 19.1 µM
- TGI [44]: 51.6 µM
- GI50 [45]: 21 µM
- TGI [45]: 62.7 µM
- GI50 [46]: 11.8 µM
- TGI [46]: 38.6 µM
- GI50 [47]: 23.4 µM
- TGI [47]: 70.2 µM
- GI50 [48]: 18.1 µM
- TGI [48]: 41 µM
- GI50 [49]: 10.5 µM
- TGI [49]: 77.2 µM
- GI50 [50]: 17.3 µM
- TGI [50]: 53.5 µM
- GI50 [51]: 11 µM
- TGI [51]: 37.8 µM
- GI50 [52]: 26.6 µM
- TGI [52]: 70 µM
- GI50 [53]: 29.8 µM
- TGI [53]: 85.6 µM
- GI50 [54]: 10 µM
- TGI [54]: 23 µM
- GI50 [55]: 23.9 µM
- TGI [55]: 56.2 µM
- GI50 [56]: 13.7 µM
- TGI [56]: 33.1 µM
- GI50 [57]: 15.2 µM
- TGI [57]: 37.3 µM
